This is an account of results in patent publication US12110289B2, “Heterocyclic compounds, preparation methods and uses thereof” (InventisBio Co., Ltd., priority 2020, dated 2024).

For the first experiment, the system named is Lung cancer cell line NCI-H358 containing KRas G12C mutation. In words: Assay for cell proliferation (Cell-titer Glo, 5 days). To be noted: Homo sapiens, NCI-H358, 120 h, NCI-H358, 5 days, Cell-titer Glo; read-out: IC50 (nM), Inhibition of NCI-H358 Cell Proliferation. The format is cell-based, human. On the procedure: One hundred fifty microliter (150 μL) of media containing 2000 cells per well were seeded into each well of a 96-well culture plate and left to attach overnight in a 37° C. incubator with 5% CO2. Diluted compounds of 0.75 μL for each well were added by liquid handler at a final concentration of 0.5% DMSO. Cells were treated for 5 days in the incubator. Cell-titer Glo (CTG) kit (Promega) was used to assess cell proliferation. Of note, 120 μL of CTG reagent was added to each well and incubated at RT for 10 minutes.
Take `C=CC(=O)N1C[C@H](C)N(c2nc(=O)n(-c3c(C4CC4)nc(C)nc3C3CC3)c3nc(-c4ccccc4F)c(F)cc23)C[C@H]1C` [Compound 50]: the IC50 is 107 nM. As to `C=CC(=O)N1C[C@H](C)N(c2nc(=O)n(-c3c(C4CC4)nc(C)nc3C3CC3)c3nc(-c4c(N)cccc4F)c(F)cc23)C[C@H]1C` [Compound 51], the IC50 is 12.5 nM.

As for `C=CC(=O)N1[C@H](C)CN(c2nc(=O)n(-c3c(C4CC4)nc(C)nc3C3CC3)c3nc(-c4ccccc4F)c(F)cc23)C[C@@H]1C` [Compound 53], the IC50 worked out at 617 nM. For `C=CC(=O)N1[C@H](C)CN(c2nc(=O)n(-c3c(C4CC4)nc(C)nc3C3CC3)c3nc(-c4c(N)cccc4F)c(F)cc23)C[C@@H]1C` [Compound 54], the IC50 is 34.6 nM. In the case of `C=CC(=O)N1[C@H](C)CN(c2nc(=O)n(-c3c(C4CC4)nc(C)nc3C3CC3)c3nc(-c4c(O)cccc4F)c(F)cc23)C[C@@H]1C` [Compound 55], the IC50 was 74.3 nM. On to `C=CC(=O)N1CCN(c2nc(=O)n(-c3c(C(C)C)nc(N(C)S(C)(=O)=O)nc3C(C)C)c3nc(-c4ccccc4F)c(F)cc23)[C@@H](C)C1` [Compound 56], for which the IC50 stood at 27 nM. For `C=CC(=O)N1CCN(c2nc(=O)n(-c3c(C)ccnc3C(C)C)c3nc(-c4cccc5[nH]nc(N)c45)c(F)cc23)[C@@H](C)C1` [Compound 59], the IC50 was over 3000 nM.

Consider `C=CC(=O)N1CCN(c2nc(=O)n(-c3c(C)cc(S(C)(=O)=O)nc3C(C)C)c3nc(-c4c(O)cccc4F)c(F)cc23)[C@@H](C)C1` [Compound 60], for which the IC50 is 81.7 nM. With `C=CC(=O)N1CCN(c2nc(=O)n(-c3c(C4CC4)nc(OC)nc3C3CC3)c3nc(-c4ccccc4F)c(F)cc23)[C@@H](C)C1` [Compound 61], the IC50 was found to be 71.2 nM. Turning to `C=CC(=O)N1CCN(c2nc(=O)n(-c3c(C4CC4)nc(OC)nc3C3CC3)c3nc(-c4c(O)cccc4F)c(F)cc23)[C@@H](C)C1` [Compound 62], the IC50 was 15.9 nM.

Take `C=CC(=O)N1CCN(c2nc(=O)n(-c3c(C(C)C)nc4c(ncn4C)c3C)c3nc(-c4ccccc4F)c(Cl)cc23)[C@@H](C)C1` [Compound 65]: the IC50 was determined as 17.6 nM. Take `C=CC(=O)N1CCN(c2nc(=O)n(-c3c(C(C)C)cc4scnc4c3C)c3nc(-c4ccccc4F)c(Cl)cc23)[C@@H](C)C1` [Compound 66]: the IC50 stood at 19.9 nM. On to `C=CC(=O)N1CCN(c2nc(=O)n(-c3c(C(C)C)cc4c(ncn4C)c3C)c3nc(-c4ccccc4F)c(Cl)cc23)[C@@H](C)C1` [Compound 67], for which the IC50 turned out to be 46.5 nM.

`C=CC(=O)N1CCN(c2nc(=O)n(-c3c(C)cc4scnc4c3C(C)C)c3nc(-c4ccccc4F)c(Cl)cc23)[C@@H](C)C1` [Compound 68]: the IC50 worked out at 344 nM. As for `C=CC(=O)N1CCN(c2nc(=O)n(-c3cc4ncn(C)c4nc3C(C)C)c3nc(-c4ccccc4F)c(Cl)cc23)[C@@H](C)C1` [Compound 70], the IC50 is 15.1 nM. The same measure, in the same setting: then `C=CC(=O)N1CCN(c2nc(=O)n(-c3ccc4scnc4c3C(C)C)c3nc(-c4ccccc4F)c(Cl)cc23)[C@@H](C)C1` [Compound 71], with 20.1 nM. The same measure, in the same setting: as for `C=CC(=O)N1CCN(c2nc(=O)n(-c3c(C(C)C)nc4c(ncn4C)c3C)c3nc(-c4ccccc4F)c(F)cc23)[C@@H](C)C1` [Compound 73], the figure is 66 nM; as for `C=CC(=O)N1CCN(c2nc(=O)n(-c3c(C4CC4)nc(OC)nc3C3CC3)c3nc(-c4c(N)cccc4F)c(F)cc23)[C@@H](C)C1` [Compound 74], 5.7 nM. Consider `C=CC(=O)N1CCN(c2nc(=O)n(-c3c(C(C)C)nc(C)nc3C(C)C)c3nc(-c4c(O)cccc4F)c(F)cc23)[C@@H](C)C1` [Compound 77], for which the IC50 amounted to 8.6 nM. Turning to `C=CC(=O)N1CCN(c2nc(=O)n(-c3c(C(C)C)nc(C)nc3C(C)C)c3nc(-c4c(N)cccc4F)c(F)cc23)[C@@H](C)C1` [Compound 78], the IC50 amounted to 10.4 nM. Still for that read-out and setting: then `C=CC(=O)N1C[C@H](C)N(c2nc(=O)n(-c3c(C4CC4)nc(OC)nc3C3CC3)c3nc(-c4c(O)cccc4F)c(F)cc23)C[C@H]1C` [Compound 79], with 12.9 nM.

Turning to `C=CC(=O)N1C[C@H](C)N(c2nc(=O)n(-c3c(C4CC4)nc(OC)nc3C3CC3)c3nc(-c4c(N)cccc4F)c(F)cc23)C[C@H]1C` [Compound 80], the IC50 amounted to 8.1 nM. In the case of `C=CC(=O)N1CCN(c2nc(=O)n(-c3c(C)cc(OC)nc3C(C)C)c3nc(-c4c(O)cccc4F)c(F)cc23)[C@@H](C)C1` [Compound 81], the IC50 stood at 35.9 nM.

Consider `C=CC(=O)N1CCN(c2nc(=O)n(-c3c(C(C)C)nc(N4CCNCC4)nc3C(C)C)c3nc(-c4c(O)cccc4F)c(Cl)cc23)[C@@H](C)C1` [Compound 82], for which the IC50 is 10.8 nM. Same read-out and setting: then `C=CC(=O)N1CCN(c2nc(=O)n(-c3c(C(C)C)nc(N4CCNCC4)nc3C(C)C)c3nc(-c4c(N)cccc4F)c(Cl)cc23)[C@@H](C)C1` [Compound 83], with 5.9 nM; and `C=CC(=O)N1C[C@H](C)N(c2nc(=O)n(-c3c(C(C)C)nc(N4CCNCC4)nc3C(C)C)c3nc(-c4ccccc4F)c(Cl)cc23)C[C@H]1C` [Compound 84], with 6.9 nM; and `C=CC(=O)N1C[C@H](C)N(c2nc(=O)n(-c3c(C4CC4)nc(N4CCNCC4)nc3C3CC3)c3nc(-c4ccccc4F)c(Cl)cc23)C[C@H]1C` [Compound 85], with 9.7 nM. Regarding `C=CC(=O)N1C[C@H](C)N(c2nc(=O)n(-c3c(C4CC4)nc(N4CCNCC4)nc3C3CC3)c3nc(-c4c(O)cccc4F)c(Cl)cc23)C[C@H]1C` [Compound 86], the IC50 is 8.6 nM.

`C=CC(=O)N1C[C@H](C)N(c2nc(=O)n(-c3c(C(C)C)nc(N4CCNCC4)nc3C(C)C)c3nc(-c4c(N)cccc4F)c(Cl)cc23)C[C@H]1C` [Compound 87]: the IC50 amounted to 4.1 nM. `C=CC(=O)N1CCN(c2nc(=O)n(-c3c(C4CC4)nc(N4CCNCC4)nc3C3CC3)c3nc(-c4c(O)cccc4F)c(Cl)cc23)[C@@H](C)C1` [Compound 88]: the IC50 amounted to 21.2 nM. As to `C=CC(=O)N1CCN(c2nc(=O)n(-c3c(C4CC4)nc(N4CCN(C)CC4)nc3C3CC3)c3nc(-c4c(O)cccc4F)c(Cl)cc23)[C@@H](C)C1` [Compound 89], the IC50 is 1.5 nM. With `C=CC(=O)N1CCN(c2nc(=O)n(-c3c(C4CC4)nc(N4CCN(C)CC4)nc3C3CC3)c3nc(-c4ccccc4F)c(Cl)cc23)[C@@H](C)C1` [Compound 91], the IC50 turned out to be 7.8 nM. With `C=CC(=O)N1CCN(c2nc(=O)n(-c3c(C4CC4)nc(N4CCNCC4)nc3C3CC3)c3nc(-c4c(N)cccc4F)c(Cl)cc23)[C@@H](C)C1` [Compound 92], the IC50 was found to be 2.8 nM.

For the compound `C=CC(=O)N1CCN(c2nc(=O)n(-c3c(C4CC4)nc(N4CCN(C)CC4)nc3C3CC3)c3nc(-c4c(N)cccc4F)c(Cl)cc23)[C@@H](C)C1` [Compound 93], the IC50 was found to be 1.8 nM. Still for that read-out and setting: then `C=CC(=O)N1C[C@H](C)N(c2nc(=O)n(-c3c(C(C)C)nc(N4CCNCC4)nc3C(C)C)c3nc(-c4ccccc4F)c(F)cc23)C[C@H]1C` [Compound 94], with 37.5 nM; and `C=CC(=O)N1C[C@H](C)N(c2nc(=O)n(-c3c(C(C)C)nc(N4CCNCC4)nc3C(C)C)c3nc(-c4c(O)cccc4F)c(F)cc23)C[C@H]1C` [Compound 95], with 14.6 nM; and `C=CC(=O)N1C[C@H](C)N(c2nc(=O)n(-c3c(C(C)C)nc(N4CCNCC4)nc3C(C)C)c3nc(-c4c(N)cccc4F)c(F)cc23)C[C@H]1C` [Compound 96], with 10.8 nM. Still for that read-out and setting: as for `C=CC(=O)N1C[C@H](C)N(c2nc(=O)n(-c3c(C(C)C)nc(N4CCN(C)CC4)nc3C(C)C)c3nc(-c4c(N)cccc4F)c(F)cc23)C[C@H]1C` [Compound 97], the figure is 7.3 nM; as for `C=CC(=O)N1C[C@H](C)N(c2nc(=O)n(-c3c(C4CC4)nc(N4CCNCC4)nc3C3CC3)c3nc(-c4c(N)cccc4F)c(F)cc23)C[C@H]1C` [Compound 98], 7.4 nM; as for `C=CC(=O)N1C[C@H](C)N(c2nc(=O)n(-c3c(C4CC4)nc(N4CCN(C)CC4)nc3C3CC3)c3nc(-c4c(N)cccc4F)c(F)cc23)C[C@H]1C` [Compound 99], 5.8 nM. `C=CC(=O)N1C[C@H](C)N(c2nc(=O)n(-c3c(C4CC4)nc(N4CCNCC4)nc3C3CC3)c3nc(-c4c(O)cccc4F)c(F)cc23)C[C@H]1C` [Compound 100]: the IC50 was determined as 14.1 nM.

With `C=CC(=O)N1C[C@H](C)N(c2nc(=O)n(-c3c(C4CC4)nc(N4CCN(C)CC4)nc3C3CC3)c3nc(-c4c(O)cccc4F)c(F)cc23)C[C@H]1C` [Compound 101], the IC50 is 25.8 nM. Consider `C=CC(=O)N1C[C@H](C)N(c2nc(=O)n(-c3c(C4CC4)nc(N4CCNCC4)nc3C3CC3)c3nc(-c4ccccc4F)c(F)cc23)C[C@H]1C` [Compound 102], for which the IC50 was found to be 37.4 nM. `C=CC(=O)N1C[C@H](C)N(c2nc(=O)n(-c3c(C4CC4)nc(N4CCN(C)CC4)nc3C3CC3)c3nc(-c4ccccc4F)c(F)cc23)C[C@H]1C` [Compound 103]: the IC50 was determined as 47.6 nM. Same read-out and setting: then `C=CC(=O)N1CCN(c2nc(=O)n(-c3c(C(C)C)nc(C4CC4)nc3C(C)C)c3nc(-c4c(N)cccc4F)c(F)cc23)[C@@H](C)C1` [Compound 105], with 8.8 nM. Turning to `C=CC(=O)N1CCN(c2nc(=O)n(-c3c(C(C)C)nc(N)nc3C(C)C)c3nc(-c4c(O)cccc4F)c(Cl)cc23)[C@@H](C)C1` [Compound 106], the IC50 amounted to 10.2 nM.

On to `C=CC(=O)N1C[C@H](C)N(c2nc(=O)n(-c3c(C(C)C)nc(N)nc3C(C)C)c3nc(-c4c(O)cccc4F)c(Cl)cc23)C[C@H]1C` [Compound 107], for which the IC50 was 5.2 nM.

The experiment is the same for the next values; noted with them: NCI-H358, 5 days, Cell-titer Glo; read-out: IC50 (nM), Inhibition of NCI-H358 Cell Proliferation.
Take `C=CC(=O)N1CCN(c2nc(=O)n(-c3c(C)cc4c(ncn4C)c3C(C)C)c3nc(-c4ccccc4F)c(Cl)cc23)[C@@H](C)C1` [Compound 69]: the IC50 is 7.8 nM.

Still in this experiment, the particulars now being: NCI-H358 IC50 comparison.
`C=CC(=O)N1CCN(c2nc(=O)n(-c3c(C(C)C)nc(C)nc3C(C)C)c3nc(-c4c(N)cccc4F)c(F)cc23)[C@@H](C)C1` [Compound 78]: the “fold more potent: 2-amino-6-fluoro-phenyl compound vs. corresponding 2-fluoro-phenyl compound at R8” value was “only slightly more potent”.
